Data reported in US11471502B2, “Neuroprotective peptide” (UNIVERSITY COLLEGE CARDIFF C[…], priority 2017, dated 2022).
“Also recorded” adds a separate entry of the source.

How the values were obtained:
ERK1/2 = experiment: Ex vivo acute striatal slices, glutamate stimulation, Western blot for phospho ERK; format: cell-based, mouse; settings: 50 μM peptide; for ERK2 activation (phosphorylation of ERK2) / pERK1 (phospho-ERK1) level: glutamate 100 μM 10 min, vs scramble
Experimental: a) RB5 peptide selectively promoted activation of ERK2. Acute striatal slices either pre-treated with Scramble (SCR) or RB5 peptide (50 μM) and then stimulated 10 minutes with glutamate (GLU) (100 μM) or vehicle were analysed in Western blot (left panel) and probed with anti phospho ERK antibodies (p44^ERK1 and p42^ERK2) and anti ERK1/2 antibody. GAPDH was used as loading control. […] No changes were detected in the total ERK1 and ERK2 levels. GAPDH was used as loading control. […] Mice injected with a single dose of CPP-SCR or CPP-RB5 peptides (20 mg/kg, i.p.) were rapidly perfused 1 h later and brains were dissected and further analysed for IHC and immunofluorescence. Representative photomicrographs of pERK1/2, pMSK, pAch3, pELK1 and c-Fos expression in the striatum. […] Two-way ANOVA Bonferroni post hoc comparison: one black star, p<0.05, two black stars, p<0.01, one white star, p<0.001. p) Dose response curve of RB5 peptide for ERK activation. 200 μm thick striatal slices were freshly prepared from 2-month old mice and transferred into a perfusion chamber for 1 h at 32° C. Slices were pre-treated with different doses of RB5 or scrambled control. After 1 h, slices for each dose was fixed in PFA 4% for 15 min. 18 μm cryo-sections were processed for immunohistochemistry with anti-phospho p44/p42 MAP kinase. Neuronal quantification was performed with ImageJ software by counting the number of phospho-ERK positive cells in each slice. The level of activation is expressed on the Y-axis as arbitrary units (AU). Doses are reported in a logarithmic scale (Log 10) on the X-axis. The EC50 was calculated using GraphPad Prism software.
Adult mice were anesthetized and decapitated. The brains were rapidly removed from the skull and put on a cool glass plate filled with ice-cold sucrose-based dissecting solution (87 mM NaCl, 2.5 mM KCl, 7 mM MgCl2, 1 mM NaH2PO4, 75 mM sucrose, 25 mM NaHCO3, 10 mM D-glucose, 0.5 mM CaCl2), 2 mM kynurenic acid) and oxygenated with 95% O2 and 5% CO2 and subsequently mounted on the vibratome stage (Vibratome, VT1000S-Leica Microsystems). 200 μm-thick slices were cut and transferred into the brain slice chamber (Brain slice chamber-BSC1—Scientific System design Inc., Mississauga, ON, Canada) and allowed to recover for 1 h at 32° C., with a constant perfusion of carboxygenated artificial cerebrospinal fluid (ACSF) in the presence of the Scramble or RB5 peptide (50 μM). Brain slice stimulation was performed with 100 μM glutamate in the chamber for 10 min. After rapid fixation in 4% PFA for 15 min at room temperature, slices were rinsed and the cryoprotected overnight at 4° C. in sucrose solution. On the following day slices were further cut in thinner slices of 18 μm using cryostat (Leica CM1850) and collected onto SuperFrost Plus slides (Thermo Scientific).
Mice were sacrificed by decapitation and brain slices were freshly prepared according to the above ex-vivo system protocol and incubated in a perfusing chamber with the peptides. After stimulation with glutamate or saline, slices were then homogenised and used for protein determination using a DC Protein Assay kit (Bio-rad). Equal amounts of protein (5 or 10 μg, depending on the target protein) for each sample were loaded onto 12% polyacrylamide gels. Proteins were separated onto SDS/PAGE and transferred to nitrocellulose membranes. After incubation for 1 hr in blocking solution (TBS1λ, 0.1% Tween), membranes were incubated overnight with anti ERK2 (K-23):sc-153 (1:1000 Santa Cruz Biotechnology, Dallas, Tex.), phospho-p42-44 Map Kinase (Thr202/[…]) (1:1000 Cell Signalling Technology, Danvers, Mass.) and anti-GAPDH (FL-335): sc-25778 (1:1000 Santa Cruz Biotechnology, Dallas, Tex.). The immunoblots were analysed with ImageJ software to measure the optical density of the bands. The levels of each protein were normalized on the GAPDH loading control.

HdhQ111 mice = experiment: HdhQ111 genetic mouse model of Huntington's disease; format: in vivo
Experimental: WT and HdhQ111 mice were treated with CPP-RB5 or Scramble (CPP-SCR) peptides (20 mg/kg i.p.) for 8 days.
Two-way ANOVA Bonferroni post-hoc comparison ***p<0.001.
HdhQ111 heterozygous mice (Jax®, Bar Harbour, Me., U.S.A.), zQ175 knock-in heterozygous (mix sex) carrying between 180 and 195 CAG repeats (CHDI-81003003, Psychogenics, Inc. Tarrytown, N.Y.) and Tg2576 transgenic male mice (C57BL6 and SLJ mix background, Taconic Biosciences) were used for IHC, IF and behavioural test.
We also evaluated the potential neuroprotective effect of RB5, in hdhQ111 transgenic mice, a late onset genetic model of Huntington's Disease. hdhQ111 mice were treated (20 mg/kg, i.p., twice a day) for 7 days (FIG. 5).

MPTP treated mice = experiment: Subacute MPTP mouse model of Parkinson's Disease; format: in vivo; settings: 4 days
Experimental: Adult mice were treated with MPTP or vehicle (20 mg/kg i.p.) for 4 days. […] Two-way ANOVA Bonferroni post-hoc comparison *p<0.05**p<0.01.
Two-way ANOVA Bonferroni post-hoc comparison *p<0.05**p<0.01
We have assessed the neuroprotective effect of RB5 in the MPTP (1-methyl-4-phenyl-1,2,3,6-tetrahydropyridine) neurotoxin model of Parkinson's Disease (FIG. 6). Mice have been treated with MPTP or vehicle (20 mg/kg, i.p) for 4 days. RB5 or scramble peptide (20 mg/kg, i.p) was injected 1 h before MPTP/vehicle.

zQ175 mice = experiment: Nose poke training (FR1) in 9-hole operant boxes, zQ175 model of Huntington's Disease; format: in vivo, mouse
Experimental: WT and zQ175 mice underwent daily 20 minutes nose poke training for 10 consecutive days (days 1-10) on a simple fixed ratio (FR1) schedule of reinforcement. Starting from day 11 mice received one administration of RB5 (20 mg/kg. i.p.) 1 h before the nose poke training. […] White star P<0.0001.
Operant testing was conducted in 16 9-hole operant boxes. Each operant box contains a horizontal array of nine holes with infrared beams localised to the front of each hole to detect nose pokes. A peristaltic pump delivers liquid reinforcement (strawberry milk) into a magazine at the front of the box.
A week before starting the training, mice undergo water restriction for 18 hours/day and are kept under this regimen throughout the experimental procedures. Mice are taught to nose poke on a simple fixed ratio (FR1) schedule of reinforcement: to obtain reward, mice are required to respond to a stimulus light in the central hole via a single nose poke. Mice are trained daily on this program during 20 minutes sessions for 10 days (training phase). Once trained, animals were subdivided in 4 groups and injected with RB5 or scramble (10 mg/kg, i.p.) peptides 1 hour before being tested on FR1 schedule for other 9 days.

Compound | total ERK1 and ERK2 levels (ERK1/2) | ERK2 activation (phosphorylation of ERK2) (ERK1/2) | pERK1 (phospho-ERK1) level (ERK1/2) | degeneration in the hdhQ111 mutants (HdhQ111 mice; 20 mg/kg i.p. twice a day, 7 days) | ERK activation (pERK) in striatum (HdhQ111 mice; 20 mg/kg i.p., 8 days) | apoptotic cells (TUNEL, dorsal striatum) (HdhQ111 mice; HdhQ111 mice, 20 mg/kg i.p., vs Scramble) | pre-apoptotic state (Cleaved Caspase-3) (HdhQ111 mice; hdhQ111 mice, 20 mg/kg i.p.) | TH loss in Substantia Nigra (MPTP treated mice; 20 mg/kg i.p. 1 h before MPTP 20 mg/kg) | apoptotic cells (TUNEL, nigral neurones) (MPTP treated mice; 20 mg/kg i.p. 1 h before MPTP) | neurodegeneration (TH, TUNEL, cleaved caspase 3) (MPTP treated mice; 20 mg/kg i.p. 1 h before MPTP) | pre-apoptotic state (Cleaved Caspase-3) (MPTP treated mice; 20 mg/kg i.p. 1 h before MPTP) | nose poke performances / responses (zQ175 mice; WT and zQ175 female mice, 9 days of RB5 treatment) | nose poke responding (zQ175 mice; zQ175 female mice, 20 mg/kg i.p. 1 h before training from day 11)
CSCC[C@H](NC(=O)[C@H](CCC(=O)O)NC(=O)[C@@H](NC(=O)[C@H](CCC(=O)O)NC(=O)CNC(=O)[C@@H]1CCCN1C(=O)[C@@H](NC(=O)CNC(=O)[C@@H]1CCCN1C(=O)CNC(=O)[C@@H](NC(=O)CNC(=O)[C@H](CCC(=O)O)NC(=O)[C@@H](NC(=O)[C@H](CCCNC(=N)N)NC(=O)[C@H](CCCNC(=N)N)NC(=O)[C@@H]1CCCN1C(=O)[C@H](CCC(=O)O)NC(=O)CNC(=O)CNC(=O)CNC(=O)CNC(=O)CNC(=O)[C@H](CCC(N)=O)NC(=O)[C@@H]1CCCN1C(=O)[C@@H]1CCCN1C(=O)[C@H](CCCNC(=N)N)NC(=O)[C@H](CCCNC(=N)N)NC(=O)[C@H](CCCNC(=N)N)NC(=O)[C@H](CCC(N)=O)NC(=O)[C@H](CCCNC(=N)N)NC(=O)[C@H](CCCNC(=N)N)NC(=O)[C@H](CCCCN)NC(=O)[C@H](CCCCN)NC(=O)[C@H](CCCNC(=N)N)NC(=O)CNC(C)=O)[C@@H](C)O)C(C)C)C(C)C)C(C)C)C(=O)N[C@H](C(=O)N[C@@H](CCCCN)C(=O)NCC(=O)N[C@@H](CCC(N)=O)C(=O)N1CCC[C@H]1C(=O)N[C@@H](Cc1ccccc1)C(=O)N[C@@H](CC(=O)O)C(=O)N[C@@H](C(=O)O)C(C)C)C(C)C [RB5] | No changes | significantly higher | equally increased | prevents degeneration | elevated pERK in WT and mutant striata; also recorded: significant enhancement of ERK activation | significant reduction of apoptotic cells | significant reduction of pre-apoptotic state | significant reduction of TH loss | significant reduction of apoptotic cells | Neurodegeneration was prevented | significant reduction of the pre-apoptotic state | significant enhancement of the responses; also recorded: improved performances | significantly improved
GRKKRRQRRRPPQGGGGGEPRRTEGVGPGVPGEVEMVKGQPFDV (listed as Homo sapiens) [CPP-RB5] | no changes | selectively enhanced | equally increased | – | – | – | – | – | – | – | – | – | –
